Patent publication US7745422B2, “Bisphosphonate compounds and methods for bone resorption diseases, cancer, bone pain, immune disorders, and infectious diseases” (The Board of Trustees of the University of Illinois, priority 2004, dated 2010)
Where two headings read alike, the source gives them in different places.

Legend:
Dictyostelium discoideum = assay: D. discoideum cell growth inhibition; assay type: cell-based
Description: (§1) We then investigated the activity of each compound in inhibiting the FPPS from L. major, in Dictyostelium discoideum growth inhibition and in γδ T cell activation. We used the FPPS from L. major since this enzyme is the putative bisphosphonate target in several trypanosomatid species.

Vγ2Vδ2 T cells = assay: gammadelta T cell stimulation (TNF-α release assay); assay type: cell-based, human
Description: as §1

[1] = Table 4, read-out: (1) D. discoideum IC50
[2] = Table 4, read-out: (3) gammadelta T cell stimulation EC50
[3] = cell growth inhibition, Table 1 and text, read-out: D. discoideum IC50
[4] = TNF-α release, Table 1 and text, read-out: gammadelta T cell stimulation, EC50
[5] = Table 3, additional testing, read-out: gammadelta T cell stimulation EC50
[6] = Dictyostelium discoideum, read-out: (1) D. discoideum IC50
[7] = Homo sapiens, T-cell, read-out: (3) gammadelta T cell stimulation EC50

| Structure (SMILES) | IC50 (Dictyostelium discoideum; [1]) [µM] | EC50 (Vγ2Vδ2 T cells; [2]) [µM] | other results |
| --- | --- | --- | --- |
| CC([n+]1ccccc1)C(O)(P(=O)([O-])O)P(=O)(O)O (single isomer, unassigned) [Compound 583] | 14 | 50 | – |
| O=P([O-])(O)C(O)(C[n+]1ccc2ccccc2c1)P(=O)(O)O (centres unmarked) [Compound 398] | 20 | 41 | IC50 (Dictyostelium discoideum; [3]): 20 µM; EC50 (Vγ2Vδ2 T cells; [4]): 41 µM; EC50 (Vγ2Vδ2 T cells; [5]): 40.6 µM |
| O=P([O-])(O)C(O)(C[n+]1ccc(Cc2ccccc2)cc1)P(=O)(O)O (centres unmarked) [Compound 443] | 12 | 230 | IC50 (Dictyostelium discoideum; [3]): 12 µM; activity in gammadelta T cell stimulation (Vγ2Vδ2 T cells; TNF-α release): poor activity; EC50 (Vγ2Vδ2 T cells; [4]): 230 µM; EC50 (Vγ2Vδ2 T cells; [5]): 187 µM |
| CCc1ccc[n+](CC(O)(P(=O)([O-])O)P(=O)(O)O)c1 (centres unmarked) [Compound 444] | 5.6 | 5.1 | IC50 (Dictyostelium discoideum; [3]): 5.6 µM; EC50 (Vγ2Vδ2 T cells; [4]): 5.1 µM; EC50 (Vγ2Vδ2 T cells; [5]): 2.8 µM |
| O=P([O-])(O)C(O)(C[n+]1cccc2cc(Cl)ccc21)P(=O)(O)O (centres unmarked) [Compound 447] | 72 | 53 | IC50 (Dictyostelium discoideum; [3]): 72 µM; EC50 (Vγ2Vδ2 T cells; [4]): 53 µM |
| O=P([O-])(O)C(O)(C[n+]1cccc(-c2ccc(C(F)(F)F)cc2)c1)P(=O)(O)O (centres unmarked) [Compound 449] | 4 | 12 | – |
| Cc1ccc2c(ccc[n+]2CC(O)(P(=O)([O-])O)P(=O)(O)O)c1 (centres unmarked) [Compound 452] | 73 | 250 | – |
| O=P([O-])(O)C(O)(CC[n+]1ccccc1)P(=O)(O)O (centres unmarked) [Compound 455] | 27 | 25 | – |
| COc1cc[n+](CC(O)(P(=O)([O-])O)P(=O)(O)O)cc1 (centres unmarked) [Compound 456] | 27 | 19 | – |
| Cc1ccc2ccc[n+](CC(O)(P(=O)([O-])O)P(=O)(O)O)c2c1 (centres unmarked) [Compound 457] | 14 | 1900 | – |
| Cc1cc(C)c[n+](CC(O)(P(=O)([O-])O)P(=O)(O)O)c1 (centres unmarked) [Compound 459] | 27 | 14 | – |
| Cc1cc[n+](CC(O)(P(=O)([O-])O)P(=O)(O)O)cc1C (centres unmarked) [Compound 460] | 14 | 13 | – |
| O=P([O-])(O)C(O)(C[n+]1cccc(-c2ccc(F)cc2)c1)P(=O)(O)O (centres unmarked) [Compound 462] | 2.7 | 15 | – |
| O=P([O-])(O)C(C[n+]1ccccc1)P(=O)(O)O (centres unmarked) [Compound 470] | 3.5 | – | EC50 (Vγ2Vδ2 T cells; [5]): 3.3 µM |
| O=P([O-])(O)C(O)(C[n+]1ccc(-c2ccncc2)cc1)P(=O)(O)O (centres unmarked) [Compound 471] | – | – | (1) D. discoideum IC50 (Dictyostelium discoideum; Table 4): inactive; (3) gammadelta T cell stimulation EC50 (Vγ2Vδ2 T cells; Table 4): inactive |
| O=P([O-])(O)C(C[n+]1cccc(-c2ccccc2)c1)P(=O)(O)O (centres unmarked) [Compound 472] | 2.5 | – | EC50 (Vγ2Vδ2 T cells; [5]): 2.1 µM |
| O=P([O-])(O)C(C[n+]1ccc2ccccc2c1)P(=O)(O)O (centres unmarked) [Compound 473] | 20 | – | EC50 (Vγ2Vδ2 T cells; [5]): 20.1 µM |
| Cc1ccc[n+](CC(P(=O)([O-])O)P(=O)(O)O)c1 (centres unmarked) [Compound 474] | 4.4 | – | EC50 (Vγ2Vδ2 T cells; [5]): 2.4 µM |
| CCc1ccc[n+](CC(P(=O)([O-])O)P(=O)(O)O)c1 (centres unmarked) [Compound 475] | 4.1 | – | EC50 (Vγ2Vδ2 T cells; [5]): 2.8 µM |
| CCCCc1ccc[n+](CC(P(=O)([O-])O)P(=O)(O)O)c1 (centres unmarked) [Compound 476] | 2.3 | – | EC50 (Vγ2Vδ2 T cells; [5]): 2 µM |
| O=P([O-])(O)C(O)(C[n+]1ccc(-c2ccccc2)cc1)P(=O)(O)O (centres unmarked) [Compound 478] | 760 | – | (3) gammadelta T cell stimulation EC50 (Vγ2Vδ2 T cells; Table 4): inactive |
| COc1ccc[n+](CC(O)(P(=O)([O-])O)P(=O)(O)O)c1 (centres unmarked) [Compound 479] | – | 15 | – |
| O=P([O-])(O)C(C[n+]1cccc(Cc2ccccc2)c1)P(=O)(O)O (centres unmarked) [Compound 480] | 3 | – | EC50 (Vγ2Vδ2 T cells; [5]): 68.7 µM |
| O=P([O-])(O)C(C[n+]1ccc(Cc2ccccc2)cc1)P(=O)(O)O (centres unmarked) [Compound 481] | 3.5 | – | EC50 (Vγ2Vδ2 T cells; [5]): 83.4 µM |
| O=P([O-])(O)C(C[n+]1cccc(Br)c1)P(=O)(O)O (centres unmarked) [Compound 483] | – | – | IC50 (Dictyostelium discoideum; [6]): 2.5 µM; EC50 (Vγ2Vδ2 T cells; Homo sapiens, T-cell, read-out: gammadelta T cell stimulation EC50): 2.9 µM |

| Structure (SMILES) | IC50 (Dictyostelium discoideum; [1]) [µM] | EC50 (Vγ2Vδ2 T cells; [2]) [µM] | other results |
| --- | --- | --- | --- |
| O=P([O-])(O)C(C[n+]1ccc(C(F)(F)F)cc1)P(=O)(O)O (centres unmarked) [Compound 485] | 58 | 370 | – |
| O=P([O-])(O)C(C[n+]1cccc(S(=O)(=O)N2CCCC2)c1)P(=O)(O)O (centres unmarked) [Compound 502] | 100 | – | (3) gammadelta T cell stimulation EC50 (Vγ2Vδ2 T cells; Table 4): inactive |
| O=P([O-])(O)C(O)(C[n+]1ccc(C(F)(F)F)cc1)P(=O)(O)O (centres unmarked) [Compound 513] | 1500 | 550 | – |
| O=P([O-])(O)C(O)(C[n+]1cccc(C(F)(F)F)c1)P(=O)(O)O (centres unmarked) [Compound 520] | – | – | IC50 (Dictyostelium discoideum; [6]): 6.3 µM; EC50 (Vγ2Vδ2 T cells; [7]): 14 µM |
| O=P([O-])(O)C(C[n+]1ccccc1F)P(=O)(O)O (centres unmarked) [Compound 521] | 570 | 790 | – |
| O=P([O-])(O)C(C[n+]1cc(F)cc(F)c1)P(=O)(O)O (centres unmarked) [Compound 523] | 4.6 | 11 | – |
| O=P([O-])(O)C(O)(C[n+]1cccc(Cl)c1)P(=O)(O)O (centres unmarked) [Compound 524] | – | – | IC50 (Dictyostelium discoideum; [6]): 2.4 µM; EC50 (Vγ2Vδ2 T cells; [7]): 10 µM |
| O=Cc1ccc[n+](CC(P(=O)([O-])O)P(=O)(O)O)c1 (centres unmarked) [Compound 525] | 8.4 | 11 | – |
| O=C(c1ccccc1)c1ccc[n+](CC(P(=O)([O-])O)P(=O)(O)O)c1 (centres unmarked) [Compound 530] | 190 | 6500 | – |
| O=P([O-])(O)C(C[n+]1ccc(-n2nnc3ccccc32)cc1)P(=O)(O)O (centres unmarked) [Compound 531] | 20 | – | (3) gammadelta T cell stimulation EC50 (Vγ2Vδ2 T cells; Table 4): inactive |
| O=Cc1cccc(-c2ccc[n+](CC(P(=O)([O-])O)P(=O)(O)O)c2)c1 (centres unmarked) [Compound 532] | 4.1 | 41 | – |
| O=P([O-])(O)C(C[n+]1cccc(-c2ccc(F)c(F)c2)c1)P(=O)(O)O (centres unmarked) [Compound 533] | – | 19 | – |
| O=P([O-])(O)C(O)(C[n+]1cc(F)cc(-c2ccccc2)c1)P(=O)(O)O (centres unmarked) [Compound 534] | – | 16 | – |
| CP(=O)([O-])C(C[n+]1cccc(-c2ccccc2)c1)P(C)(=O)O (centres unmarked) [Compound 556] | – | 2300 | (1) D. discoideum IC50 (Dictyostelium discoideum; Table 4): inactive |
| CCCOc1cccc(-c2ccc[n+](CC(P(=O)([O-])O)P(=O)(O)O)c2)c1 (centres unmarked) [Compound 577] | 4.1 | 21 | – |
| COc1cccc(-c2ccc[n+](CC(P(=O)([O-])O)P(=O)(O)O)c2)c1 (centres unmarked) [Compound 578] | 4 | 20 | – |
| CCCCOc1cccc(-c2ccc[n+](CC(P(=O)([O-])O)P(=O)(O)O)c2)c1 (centres unmarked) [Compound 579] | 6 | 20 | – |
| CCCCOc1ccc(-c2ccc[n+](CC(P(=O)([O-])O)P(=O)(O)O)c2)cc1 (centres unmarked) [Compound 586] | 6 | 90 | – |
| CCCCCCc1ccc[n+](CC(P(=O)([O-])O)P(=O)(O)O)c1 (centres unmarked) [Compound 598] | 1.7 | 35 | – |
| CC(C)=CCc1ccc[n+](CC(P(=O)([O-])O)P(=O)(O)O)c1 (centres unmarked) [Compound 599] | 1.7 | 69 | – |
| CCCCOc1ccc(-c2ccc[n+](CC(O)(P(=O)([O-])O)P(=O)(O)O)c2)cc1 (centres unmarked) [Compound 600] | 11 | 290 | – |
| CC(C)=CCCC(C)=CCc1ccc[n+](CC(P(=O)([O-])O)P(=O)(O)O)c1 (centres unmarked) [Compound 601] | 2.4 | 220 | – |
| CC(C)C#Cc1ccc[n+](CC(P(=O)([O-])O)P(=O)(O)O)c1 (centres unmarked) [Compound 602] | 2.04 | 18 | – |
| CC(C)CCc1ccc[n+](CC(P(=O)([O-])O)P(=O)(O)O)c1 (centres unmarked) [Compound 603] | – | 22 | – |
| CCCCCCCCc1ccc[n+](CC(P(=O)([O-])O)P(=O)(O)O)c1 (centres unmarked) [Compound 605] | – | 6 | – |
